Experiment [1] can be described thus: DPPH free radical scavenging assay. The note with it: 30 min, room temperature (30 °C), 515 nm. Background: Loss of DPPH colour is used to gauge radical scavenging.
Procedure: The DPPH method [36] was used to determine the free radical-scavenging potential of each sample. The test sample (0.1 mL) was added to 3.9 mL of DPPH solution (6 × 10^−5 M). The absorbance was measured at 515 nm after 30 min of the reaction at room temperature (30 °C). The antiradical activity was calculated as a percentage of DPPH decolouration versus a control. The results were expressed as the concentration of the FTE that scavenged 50% of the free radicals from the reaction mixture (SC50). The percent DPPH scavenging effect was calculated by using following equation [37]: (1) DPPHscavengingeffect(%)orPercentinhibition=[Ao - At/Ao]×100 where Ao is the absorbance of the control reaction and At is the absorbance in the presence of a test or standard sample. AsA, BHA, BHT, and tocopherol were used as positive references.
The target of a further experiment is mushroom tyrosinase. The experiment is described as follows: Mushroom tyrosinase inhibition in vitro (dopachrome method, L-DOPA oxidation). The note with it: mean ± SEM; L-DOPA substrate, pH 6.8, 25 °C. The experiment is classed as biochemical. As to the method:
Briefly, 120 µL of 20 mM phosphate buffer (pH 6.8), 40 µL of 48 units/mL mushroom tyrosinase, and 20 µL of various sample concentrations with or without enzyme were placed in the wells of a 96-well microplate. After pre-incubation at 25 °C for 10 min, 20 µL of 0.85 mM L-DOPA was added, and the plate was subsequently incubated at 25 °C for 20 min. The amount of dopachrome was measured at 492 nm in an ELISA plate reader (Anthos 2010, Anthos Labtec Instruments GmbH, Wals, Austria). The extent of inhibition by the test samples was expressed as the percentage of concentration necessary to achieve 50% inhibition (IC50).

A short description of experiment [2]: Chelation of ferrous metal ions (ferrozine-Fe2+ complex formation). The settings on record: mean ± SD; 10 min, 30 °C, 562 nm. As to the method: The method of Gülçin et al. was followed. The reaction mixture, containing different concentrations of each sample, FeCl2 (2 mM), and ferrozine (1.5 mM), was adjusted to a total volume of 4 mL with absolute methanol, shaken well, and incubated for 10 min at room temperature (30 °C). The absorbance of the mixture was measured at 562 nm against a blank. EDTA was used as the positive reference. The percent inhibition of ferrozine-Fe^2+ complex formation was calculated against a control. The results were expressed as the concentration of the FTE that chelated 50% of metal ions (IC50).

`Cc1cc(C(C)(C)C)c(O)c(C(C)(C)C)c1` [BHT, butylated hydroxytoluene]: in experiment [1], the “SC50 (50% inhibition of the DPPH scavenging effect)” value is reported as 0.224 ± 0.005 moles of tested compound/mole DPPH.

`COc1ccc(O)c(C(C)(C)C)c1` [BHA, butylated hydroxyanisole]: the “SC50 (50% inhibition of the DPPH scavenging effect)” value in experiment [1] is 0.184 ± 0.011 moles of tested compound/mole DPPH.

With `Oc1cc(O)c2c(c1)O[C@H](c1cc(O)c(O)c(O)c1)[C@H](O)C2` [EGC, (−)-epigallocatechin], the “Anti-tyrosinase IC50” value at mushroom tyrosinase is given as 110.00 ± 0.00 µg/mL.

In the case of `O=C1O[C@H]([C@@H](O)CO)C(O)=C1O` [AsA, ascorbic acid], in experiment [1], the “SC50 (50% inhibition of the DPPH scavenging effect)” value is reported as 0.209 ± 0.006 moles of tested compound/mole DPPH.

For the molecule `Cc1c(C)c2c(c(C)c1O)CCC(C)(CCCC(C)CCCC(C)CCCC(C)C)O2` (racemic) [Tocopherol, DL-α-tocopherol], in experiment [1], the “SC50 (50% inhibition of the DPPH scavenging effect)” value is 0.196 ± 0.005 moles of tested compound/mole DPPH.

Take `O=C(O[C@@H]1Cc2c(O)cc(O)cc2O[C@@H]1c1cc(O)c(O)c(O)c1)c1cc(O)c(O)c(O)c1` [EGCG, (−)-epigallocatechin-3-gallate]: the “Anti-tyrosinase IC50” value at mushroom tyrosinase stood at 234.00 ± 6.00 µg/mL.

`O=C(O)CN(CCN(CC(=O)O)CC(=O)O)CC(=O)O` [EDTA, ethylenediaminetetraacetic acid]: the “Iron(II)-chelating IC50” value in experiment [2] is recorded as 0.01 ± 0.00 mg/mL.

`O=C(O[C@@H]1Cc2c(O)cc(O)cc2O[C@@H]1c1ccc(O)c(O)c1)c1cc(O)c(O)c(O)c1` [ECG, (−)-epicatechin-3-gallate]: the “Anti-tyrosinase IC50” value on mushroom tyrosinase came out at 76.50 ± 1.50 µg/mL.

The values above are taken from article PMC6155403, “Camellia sinensis L. Extract and Its Potential Beneficial Effects in Antioxidant, Anti-Inflammatory, Anti-Hepatotoxic, and Anti-Tyrosinase Activities” (Molecules : A Journal of Synthetic Chemistry and Natural …, 2017).
